Experimental data from article PMC4340503 (Nature, 2008).
Where a SMILES comes first, the peptide text is derived from it. [ ]: non-standard residue; d: D form. The star is where a group is joined. X1 = CCCCCCCCCCCCCCCC(=O)OC[C@H](COP(=O)(O)OCCNC(=O)CCCc1ccc(N2C(=O)CC(*)C2=O)cc1)OC(=O)CCCCCCCCCCCCCCC; pS = N[C@@H](COP(=O)(O)O)C(=O)O

Legend:
[1] = target: AP2 core σ2V88D (UniProt P17427+P62743+P63010+P84092, V88D); type: binding; conditions: pH 8.7
[2] = target: AP2 core σ2L103S (UniProt P17427+P62743+P63010+P84092, L103S); type: binding; conditions: pH 8.7
Sequence of AP2 core σ2L103S (P62743 whole entry L103S): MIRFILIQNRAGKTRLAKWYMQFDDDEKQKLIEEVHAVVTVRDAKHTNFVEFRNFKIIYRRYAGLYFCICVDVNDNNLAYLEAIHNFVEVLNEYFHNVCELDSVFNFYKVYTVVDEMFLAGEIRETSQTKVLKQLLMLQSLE
Sequence of AP2 core σ2L103S (P84092 whole entry): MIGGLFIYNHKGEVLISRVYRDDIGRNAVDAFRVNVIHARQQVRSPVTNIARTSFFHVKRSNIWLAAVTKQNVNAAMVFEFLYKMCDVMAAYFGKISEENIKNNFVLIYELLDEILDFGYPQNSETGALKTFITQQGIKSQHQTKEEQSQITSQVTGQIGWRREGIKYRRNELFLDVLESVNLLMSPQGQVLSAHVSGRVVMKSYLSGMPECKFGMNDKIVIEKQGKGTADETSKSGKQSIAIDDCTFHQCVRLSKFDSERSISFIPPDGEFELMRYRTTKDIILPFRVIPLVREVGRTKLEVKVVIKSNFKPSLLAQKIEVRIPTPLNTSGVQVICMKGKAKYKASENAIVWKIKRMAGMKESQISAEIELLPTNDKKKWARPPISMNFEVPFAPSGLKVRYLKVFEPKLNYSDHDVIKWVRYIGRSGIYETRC
Sequence of AP2 core σ2L103S (P17427 1-621): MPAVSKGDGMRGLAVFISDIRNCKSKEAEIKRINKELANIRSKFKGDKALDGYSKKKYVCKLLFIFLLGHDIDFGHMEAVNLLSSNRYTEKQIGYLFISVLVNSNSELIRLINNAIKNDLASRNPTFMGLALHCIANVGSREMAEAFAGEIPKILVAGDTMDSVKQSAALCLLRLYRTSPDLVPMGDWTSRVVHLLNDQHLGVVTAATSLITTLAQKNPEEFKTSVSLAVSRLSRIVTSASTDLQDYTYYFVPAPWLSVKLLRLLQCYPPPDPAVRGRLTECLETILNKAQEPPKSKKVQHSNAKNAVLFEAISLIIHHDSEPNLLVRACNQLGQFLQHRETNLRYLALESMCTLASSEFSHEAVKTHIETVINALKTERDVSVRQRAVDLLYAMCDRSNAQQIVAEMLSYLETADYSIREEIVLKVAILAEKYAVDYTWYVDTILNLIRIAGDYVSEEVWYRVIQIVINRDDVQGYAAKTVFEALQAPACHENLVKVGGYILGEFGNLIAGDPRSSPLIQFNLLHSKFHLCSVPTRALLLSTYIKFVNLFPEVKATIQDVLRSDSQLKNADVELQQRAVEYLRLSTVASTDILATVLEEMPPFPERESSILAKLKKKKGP
Sequence of AP2 core σ2L103S (P63010 1-591): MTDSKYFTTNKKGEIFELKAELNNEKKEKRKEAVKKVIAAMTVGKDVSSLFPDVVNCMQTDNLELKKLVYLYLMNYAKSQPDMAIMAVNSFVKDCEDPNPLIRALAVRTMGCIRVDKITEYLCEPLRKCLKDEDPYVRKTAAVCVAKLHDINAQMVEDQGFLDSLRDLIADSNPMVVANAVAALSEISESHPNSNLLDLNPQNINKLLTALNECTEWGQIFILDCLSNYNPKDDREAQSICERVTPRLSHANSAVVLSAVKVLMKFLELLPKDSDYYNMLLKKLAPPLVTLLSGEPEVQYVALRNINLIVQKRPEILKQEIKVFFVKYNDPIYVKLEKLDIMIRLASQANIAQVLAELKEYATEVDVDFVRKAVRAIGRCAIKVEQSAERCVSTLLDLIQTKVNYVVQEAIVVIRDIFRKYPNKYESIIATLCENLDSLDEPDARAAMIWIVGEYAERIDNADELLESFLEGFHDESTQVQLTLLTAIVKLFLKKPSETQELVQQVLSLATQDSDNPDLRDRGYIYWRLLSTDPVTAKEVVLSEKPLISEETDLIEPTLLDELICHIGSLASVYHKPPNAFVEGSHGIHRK

Sequence of AP2 core σ2V88D (P62743 whole entry V88D): as the sequence (P62743 whole entry L103S) above, with V88D, S103L counted along it
Sequence of AP2 core σ2V88D (P63010 1-591, stated change not applied): as the sequence (P63010 1-591) above
Sequence of AP2 core σ2V88D (P84092 whole entry, stated change not applied): as the sequence (P84092 whole entry) above
Sequence of AP2 core σ2V88D (P17427 1-621): as the sequence (P17427 1-621) above

Structure (SMILES): CCCCCCCCCCCCCCCC(=O)OC[C@H](COP(=O)(O)OCCNC(=O)CCCc1ccc(N2C(=O)CC(SC[C@H](N)C(=O)N[C@@H](Cc3c[nH]cn3)C(=O)N[C@@H](CCCNC(=N)N)C(=O)N[C@@H](CCCNC(=N)N)C(=O)N[C@@H](CCCNC(=N)N)C(=O)N[C@@H](CCC(N)=O)C(=O)N[C@@H](C)C(=O)N[C@@H](CCC(=O)O)C(=O)N[C@@H](CCCNC(=N)N)C(=O)N[C@@H](CCSC)C(=O)N[C@@H](COP(=O)(O)O)C(=O)N[C@@H](CCC(N)=O)C(=O)N[C@H](C(=O)N[C@@H](CCCCN)C(=O)N[C@@H](CCCNC(=N)N)C(=O)N[C@@H](CC(C)C)C(=O)N[C@@H](CC(C)C)C(=O)N[C@@H](CO)C(=O)N[C@@H](CCC(=O)O)C(=O)N[C@@H](CCCCN)C(=O)O)[C@@H](C)CC)C2=O)cc1)OC(=O)CCCCCCCCCCCCCCC (some centres unmarked) [phospho-CD4 Q-peptide] (H-C(X1)HRRRQAERM[pS]QIKRLLSEK-OH; N-terminus and C-terminus assumed)
- KD [1]: below detectable levels
- KD [2]: below detectable levels
